# US9409975B2, “Antibody binding microbial heparin binding motif to retard or prevent microbial biofilm formation on implanted medical devices” (priority 2012, dated 2016)
# What was measured:
# C. albicans = test: Histatin killing assay after heparin preincubation; assay type: cell-based, Candida albicans; conditions: 500 units/ml heparin, then histatin 5 (15 μM)
# Method: In order to evaluate the consequences of removal of Ssa1 and Ssa2 (Table 4), both targets of histatin, a histatin killing assay was performed as follows. C. albicans strains were grown to late log phase overnight in YPD. A single colony was suspended in 1 ml YPD, diluted 1:500 into 10 ml YPD, and incubated overnight at 30° C. and 225 rpm to OD600 1.0. Yeast cells were washed twice in PBS and 2×10^4 cells suspended in 250 μl RPMI+10 mM HEPES, pH 7.0, with or without 500 units/ml heparin (Sigma). The cells were incubated at 37° C. for one hour with shaking, washed twice with 10 mM phosphate buffer, pH 7.4, and suspended in 20 μl phosphate buffer. Histatin 5 (final concentration 15 μM; Peptides International) or 10 mM phosphate buffer was added to the preincubated cells (total volume 40 μl) and incubated further at 37° C. for 90 minutes with shaking. YPD (360 ul) was added to each tube, a 40 μl aliquot spread onto YPD plates, and colonies counted after two days. The effect of heparin treatment was determined by the formula % change=[(cfu+heparin)−(cfu−heparin)]/(cfu+heparin).
# [1] = tested on: C. albicans binding to heparin; test: Inhibition of binding of CFSE-labeled C. albicans to plate-bound heparin (antibody and heparin inhibition studies); assay type: cell-based, Candida albicans
# Method: A single colony of C. albicans was suspended in CSM to an OD600 of 0.1, diluted 1:200 into 25 ml CSM and grown at 30° C. overnight to mid-log phase (OD600 0.6-0.7). Cells were washed twice in sterile PBS and suspended in PBS at 2×10^7 CFU/ml. Carboxyfluorescein succinimidyl ester (Life Technologies) was dissolved in DMSO, diluted in PBS to 50 μM, and 0.5 ml CFSE mixed with 0.5 ml C. albicans suspension. The mixture was incubated for 20 min at room temperature on a rotator, washed once with FACS buffer, once with PBS, then suspended in 1 ml FACS buffer. Intensity of labeling was determined as the mean fluorescence intensity using a BD Accuri C6 cytometer (San Jose, Calif.) with excitation at 488 nm and a 533/30 emission filter. […] The following afternoon, C. albicans wild type strain and mutants were labeled with CFSE as follows: after growth of C. albicans to mid-log phase in CSM medium, organisms were washed two times in PBS and suspended in PBS at a concentration of 2×10^7/ml. 0.5 ml cells was mixed with 0.5 ml CFSE, covered in foil, and rotated on a mixer for 20 minutes at room temperature. […] At the end of the incubation period, wells were washed three times with PBS, and fluorescence in each well was measured (Beckman Coulter Multimode detector DTX880). […]
substance,measurement,setting,value
heparin,decrease in histatin-mediated killing,C. albicans; INT1 double disruptant,1.5%
same,decrease in histatin-mediated killing,C. albicans; wild type C. albicans,25%
same,"binding of C. albicans to solid-phase heparin after preincubation with heparin, in words",[1]; 2.5 units (12.5 μg) solid-phase heparin,significantly decreased
same,decrease in binding of C. albicans to heparin after pre-incubation with soluble heparin,"[1]; CFSE-labeled C. albicans pre-incubated with 100 units/ml heparin, p=0.022, data not shown",27%
